Measurements taken from publication PMC11178787, “Development of a natural product optimization strategy for inhibitors against MraY, a promising antibacterial target” (Nature Communications, 2024).
Converted amounts (≈) assume the structure as drawn.

How the values were obtained:
MraYSA (S. aureus MraY) = MraYSA (S. aureus MraY) (Staphylococcus aureus, UniProt Q2FZ93); assay: fluorescence assay of dansylated lipid I formation; assay type: biochemical
E. cloacae ATCC 13047 = tested on: T1, E. cloacae ATCC 13047; assay: microbe, parasite or virus in culture; conditions: Enterobacter cloacae, ATCC13047
T1 construct: ATCC 13047
Procedure: (§1) MICs were determined by a microdilution broth method as recommended by the CLSI with MHB-II. For MICs of stable analogues, a 2-fold dilution of each compound was prepared in DMSO at 100-fold of the final concentration. The strains were inoculated with 5 × 10^5 cfu/mL in 96-well plates (each 100 μL/well), and 1 μL of DMSO solutions of the samples were added (contained less than 1% DMSO). The plates were incubated at 37 °C for 18 h and then MICs were determined. MICs of stable analogues in Table 1 were the highest value in three trials. MICs in Supplementary Table 1 were determined in one trial.  Fig. 2 Results of biological evaluations of hydrazone library. a General structures of hydrazine fragment moiety are shown. Each hydrazine class are represented by different colours (green; BZ, cyan; PA, grey; AC, yellow; AA, orange; LA). b–h MraY inhibitory activity and antibacterial activity of the hydrazone library. The bar graphs show the relative enzyme activity with DMSO as 100% when the compound is treated at given concentration (b,c; TUN at 100 nM, d,e; MRY at 10 nM, f.g; MRD at 100 nM, h; CAP at 1000 nM. n = 1), with the lower bars indicating higher inhibitory activity. The colour of the bars corresponds to Fig. 2a. […] Data of control compounds (van: vancomycin, col: colistin) are shown left column in each panel. E. faecium ATCC 35667, S. aureus ATCC 29213, P. aeruginosa ATCC 27853, K. pneumoniae ATCC 13883, E. cloacae ATCC 13047, A. baumannii ATCC 19606, E. coli ATCC 25922.

S. aureus ATCC 29213 = tested on: T2, S. aureus ATCC 29213; assay: microbe, parasite or virus in culture; conditions: Staphylococcus aureus, ATCC29213
T2 construct: ATCC 29213
Procedure: as §1

P. aeruginosa ATCC 27853 = tested on: T3, P. aeruginosa ATCC 27853; assay: microbe, parasite or virus in culture; conditions: Pseudomonas aeruginosa, ATCC27853
T3 construct: ATCC 27853
Procedure: as §1

A. baumannii ATCC 19606 = tested on: T4, A. baumannii ATCC 19606; assay: microbe, parasite or virus in culture; conditions: Acinetobacter baumannii, ATCC19606
T4 construct: ATCC 19606
Procedure: as §1

K. pneumoniae ATCC 13883 = tested on: T5, K. pneumoniae ATCC 13883; assay: microbe, parasite or virus in culture; conditions: Klebsiella pneumoniae, ATCC13883
T5 construct: ATCC 13883
Procedure: as §1

E. coli ATCC 25922 = tested on: T6, E. coli ATCC 25922; assay: microbe, parasite or virus in culture; conditions: Escherichia coli, ATCC25922
T6 construct: ATCC 25922
Procedure: as §1

E. faecium ATCC 35667 = tested on: T7, E. faecium ATCC 35667; assay: microbe, parasite or virus in culture; conditions: Enterococcus faecium, ATCC35667
T7 construct: ATCC 35667
Procedure: as §1

Sequence of MraYSA (S. aureus MraY) (Q2FZ93 whole entry): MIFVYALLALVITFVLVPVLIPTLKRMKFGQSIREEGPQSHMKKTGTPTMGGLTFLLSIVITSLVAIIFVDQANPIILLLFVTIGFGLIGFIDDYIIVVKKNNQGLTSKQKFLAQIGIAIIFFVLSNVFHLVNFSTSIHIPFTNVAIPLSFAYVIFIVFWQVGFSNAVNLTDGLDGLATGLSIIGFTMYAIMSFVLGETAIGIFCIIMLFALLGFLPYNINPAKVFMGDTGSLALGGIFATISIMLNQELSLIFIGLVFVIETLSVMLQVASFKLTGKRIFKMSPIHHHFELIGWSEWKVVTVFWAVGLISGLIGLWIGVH

Compound | IC50 (MraYSA (S. aureus MraY)) [nM] | MIC (E. cloacae ATCC 13047) [µM] | MIC (S. aureus ATCC 29213) [µM] | MIC (P. aeruginosa ATCC 27853) [µM] | MIC (A. baumannii ATCC 19606) [µM] | MIC (K. pneumoniae ATCC 13883) [µM] | MIC (E. coli ATCC 25922) [µM] | MIC (E. faecium ATCC 35667) [µM]
CC(C)(C)c1ccc(C(=O)N/N=C/c2ccc(CN[C@H](C(=O)O)[C@H](O[C@@H]3O[C@H](CN)[C@@H](O)[C@H]3O)[C@H]3O[C@@H](n4ccc(=O)[nH]c4=O)[C@H](O)[C@@H]3O)cc2)cc1 [MRYp-BZ2] | 2.4 |  |  |  |  |  |  | 
CC[C@H]1OC(=O)[C@H](C)[C@@H](O[C@H]2C[C@@](C)(OC)[C@@H](O)[C@H](C)O2)[C@H](C)[C@@H](O[C@@H]2O[C@H](C)C[C@H](N(C)C)[C@H]2O)[C@](C)(O)C[C@@H](C)CN(C)[C@H](C)[C@@H](O)[C@]1(C)O [azithromycin] |  | 50 (≈ 37.4 µg/mL) | 5 (≈ 3.74 µg/mL) | 50 (≈ 37.4 µg/mL) | 50 (≈ 37.4 µg/mL) | 5 (≈ 3.74 µg/mL) | 5 (≈ 3.74 µg/mL) | < 0.5
CC[C@H]1OC(=O)[C@H](C)[C@@H](O[C@H]2C[C@@](C)(OC)[C@@H](O)[C@H](C)O2)[C@H](C)[C@@H](O[C@@H]2O[C@H](C)C[C@H](N(C)C)[C@H]2O)[C@](C)(O)C[C@@H](C)C(=O)[C@H](C)[C@@H](O)[C@]1(C)O [erythromycin] |  | > 50 | < 0.5 | > 50 | 50 (≈ 36.7 µg/mL) | > 50 | 50 (≈ 36.7 µg/mL) | < 0.5
CO[C@H]1/C=C/O[C@@]2(C)Oc3c(C)c(O)c4c(O)c(c(/C=N/N5CCN(C)CC5)c(O)c4c3C2=O)NC(=O)/C(C)=C\C=C\[C@H](C)[C@H](O)[C@@H](C)[C@@H](O)[C@@H](C)[C@H](OC(C)=O)[C@@H]1C [rifampicin] |  | 50 (≈ 41.1 µg/mL) | < 0.5 | 50 (≈ 41.1 µg/mL) | 5 (≈ 4.11 µg/mL) | 50 (≈ 41.1 µg/mL) | 5 (≈ 4.11 µg/mL) | 5 (≈ 4.11 µg/mL)
CN[C@@H]1[C@H](O[C@H]2[C@H](O[C@H]3[C@H](O)[C@@H](O)[C@H](N=C(N)N)[C@@H](O)[C@@H]3N=C(N)N)O[C@@H](C)[C@]2(O)C=O)O[C@@H](CO)[C@H](O)[C@H]1O [streptomycin] |  | > 50 | 50 (≈ 29.1 µg/mL) | 50 (≈ 29.1 µg/mL) | > 50 | 50 (≈ 29.1 µg/mL) | 50 (≈ 29.1 µg/mL) | 50 (≈ 29.1 µg/mL)
